Test results published in patent US11034700B2, “Substituted pyrrolidine compound and use thereof” (Takeda Pharmaceutical Company Limited, priority 2017, dated 2021).

Molecular target: T1, human OX2 receptor (Homo sapiens, UniProt O43614)
T1 construct: expressed in transfected cells
T1 sequence (O43614 1-444): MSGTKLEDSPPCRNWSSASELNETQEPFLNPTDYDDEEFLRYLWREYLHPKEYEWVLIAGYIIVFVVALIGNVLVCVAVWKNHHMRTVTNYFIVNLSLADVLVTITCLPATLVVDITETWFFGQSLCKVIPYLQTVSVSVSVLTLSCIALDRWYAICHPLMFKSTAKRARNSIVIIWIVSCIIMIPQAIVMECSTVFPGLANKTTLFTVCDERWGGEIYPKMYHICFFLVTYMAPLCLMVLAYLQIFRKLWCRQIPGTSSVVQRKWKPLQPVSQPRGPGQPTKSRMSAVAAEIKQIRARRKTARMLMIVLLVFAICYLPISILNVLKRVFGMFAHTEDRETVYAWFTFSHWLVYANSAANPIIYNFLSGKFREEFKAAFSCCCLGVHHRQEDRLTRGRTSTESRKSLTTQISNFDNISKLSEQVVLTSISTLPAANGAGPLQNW
Experiment: Measurement of orexin type 2 receptor agonist activity (Fluo-4 calcium fluorescence, FDSS)
Assay type: cell-based
Conditions: compound at 3 μM; CHO cells forcibly expressing human OX2 receptor; DMSO = 0%, orexin A (human) 10 nM = 100%
Source text: Experimental Example 1: Obtainment of Cell Stably Expressing Human Orexin Type 2 Receptor (hOX2R)
To obtain a cell clone stably expressing human orexin type 2 receptor, human orexin type 2 receptor cDNA was inserted into pcDNA3.1(+) plasmid vector (Invitrogen), and a plasmid DNA for expression of human orexin type 2 receptor (pcDNA3.1(+)/hOX2R) was cloned. The plasmid DNA was introduced into CHO-dhfr cell by an electroporation method, and human orexin type 2 receptor expressing clone cells were obtained by limiting dilution method by using G418 drug resistance as a selection marker.
Experimental Example 2: Measurement of Orexin Type 2 Receptor Agonist Activity
CHO cells forcibly expressing human OX2 receptor were seeded in each well of 384 well black transparent bottom plate (BD Falcon) at 7,500 cells/well, and cultured for one day in a 5% CO2 incubator at 37° C. After removal of the medium in the cell plate, assay buffer A containing a calcium indicator (HESS (Life Technologies), 20 mM HEPES (Life Technologies), 0.1% BSA (Wako Pure Chemical Industries, Ltd.), 2.5 μg/mL Fluo-4 AM (DOJINDO Chemical), 0.08% Pluronic F127 (DOJINDO Chemical), 1.25 mM probenecid (DOJINDO Chemical)) was added at 30 μL/well. The plate was stood for 30 min in a 5% CO2 incubator at 37° C., and further stood at room temperature for 30 min. A test compound prepared by diluting with assay buffer B (HESS, 20 mM HEPES, 0.1% BSA) was added at 10 μL/well, and the fluorescence value was measured by FDSSμCELL (Hamamatsu Photonics K.K.) every one sec for 1 min, and thereafter every two sec for 1 min 40 sec. The activity (%) of the test compound was calculated assuming that variation in the fluorescence value when DMSO was added instead of the test compound was 0% […], and variation in the fluorescence value when orexin A (human) (PEPTIDE INSTITUTE, INC.) was added at the final concentration of 10 nM was 100% […]. The activity of each compound at the concentration of 3 μM was shown below.

SMILES | OX2R agonist activity (3 μM, %) [%]
COc1ccccc1S(=O)(=O)Nc1cccc(O[C@@H]2CN(C(=O)C3(c4ccccc4)CC3)C[C@H]2OC)c1 [Example 76, 2-methoxy-N-(3-(((3R,4R)-4-methoxy-1-((1-phenylcyclopropyl)carbonyl)pyrrolidin-3-yl)oxy)phenyl)benzenesulfonamide] | 79
Cc1cccc(C)c1C(=O)N1CC[C@H](Oc2cccc(NS(=O)(=O)c3ccccc3Cl)c2)C1 [Example 37, 2-chloro-N-(3-(((3S)-1-(2,6-dimethylbenzoyl)pyrrolidin-3-yl)oxy)phenyl)benzenesulfonamide] | 35
CCCS(=O)(=O)Nc1cccc(O[C@@H]2CN(C(=O)c3cc(C)ccc3C)C[C@H]2OC)c1 (relative stereo) [Example 66, trans-N-(3-((1-(2,5-dimethylbenzoyl)-4-methoxypyrrolidin-3-yl)oxy)phenyl)propane-1-sulfonamide] | 76
CO[C@@H]1CN(C(=O)c2cc(C)ccc2C)C[C@H]1Oc1cccc(NS(=O)(=O)C2CCOCC2)c1 [Example 81, N-(3-(((3R,4R)-1-(2,5-dimethylbenzoyl)-4-methoxypyrrolidin-3-yl)oxy)phenyl)tetrahydro-2H-pyran-4-sulfonamide] | 92
COc1ccccc1S(=O)(=O)Nc1cccc(O[C@@H]2CN(C(=O)c3cc(C)ccc3C)C[C@H]2C)c1 (relative stereo) [Example 92, trans-N-(3-((1-(2,5-dimethylbenzoyl)-4-methylpyrrolidin-3-yl)oxy)phenyl)-2-methoxybenzenesulfonamide] | 102
COc1ccccc1S(=O)(=O)Nc1ccc(F)c(O[C@@H]2CN(C(=O)c3cc(C)ccc3C)C[C@H]2OC)c1 (relative stereo) [Example 86, trans-N-(3-((1-(2,5-dimethylbenzoyl)-4-methoxypyrrolidin-3-yl)oxy)-4-fluorophenyl)-2-methoxybenzenesulfonamide] | 80
COc1ccccc1S(=O)(=O)Nc1cccc(O[C@@H]2CN(C(=O)c3c(C)cccc3C)C[C@H]2OC)c1 [Example 74, N-(3-(((3R,4R)-1-(2,6-dimethylbenzoyl)-4-methoxypyrrolidin-3-yl)oxy)phenyl)-2-methoxybenzenesulfonamide] | 104
COc1ccccc1S(=O)(=O)Nc1cc(C)cc(O[C@@H]2CN(C(=O)c3cc(C)ccc3C)C[C@H]2OC)c1 (relative stereo) [Example 105, trans-N-(3-((1-(2,5-dimethylbenzoyl)-4-methoxypyrrolidin-3-yl)oxy)-5-methylphenyl)-2-methoxybenzenesulfonamide] | 94
COc1ccccc1S(=O)(=O)Nc1cccc(C[C@@H]2CN(C(=O)c3cc(C)ccc3C)C[C@H]2OC)c1 (relative stereo) [Example 119, trans-N-(3-((1-(2,5-dimethylbenzoyl)-4-methoxypyrrolidin-3-yl)methyl)phenyl)-2-methoxybenzenesulfonamide] | 57
COc1ccccc1S(=O)(=O)Nc1cccc(O[C@@H]2CN(C(=O)c3c(C)cccc3F)C[C@H]2OC)c1 [Example 96, N-(3-(((3R,4R)-1-(2-fluoro-6-methylbenzoyl)-4-methoxypyrrolidin-3-yl)oxy)phenyl)-2-methoxybenzenesulfonamide] | 80

Next, values leading:

OX2R agonist activity (3 μM, %) [%] | SMILES
97 | COc1ccc(-c2cccc(C(=O)N(C)C)c2)cc1S(=O)(=O)Nc1cccc(O[C@H]2CCN(C(=O)c3cnn(C)c3-c3ccccc3)C2)c1 [Example 13, 4′-methoxy-N,N-dimethyl-3′-((3-(((3S)-1-((1-methyl-5-phenyl-1H-pyrazol-4-yl)carbonyl)pyrrolidin-3-yl)oxy)phenyl)sulfamoyl)biphenyl-3-carboxamide]
103 | COc1ccc(-c2cccc(C(=O)N(C)C)c2)cc1S(=O)(=O)Nc1cccc(NC2CCN(C(=O)c3cccc(C)c3)C2)c1 (stereo not shown) [Example 1, 4′-methoxy-N,N-dimethyl-3′-((3-((1-(3-methylbenzoyl)pyrrolidin-3-yl)amino)phenyl)sulfamoyl)biphenyl-3-carboxamide]
92 | COc1ccc(-c2cccc(C(=O)N(C)C)c2)cc1S(=O)(=O)Nc1cccc(O[C@H]2CCN(C(=O)c3ccccc3C)C2)c1 [Example 7, 4′-methoxy-N,N-dimethyl-3′-((3-(((3S)-1-(2-methylbenzoyl)pyrrolidin-3-yl)oxy)phenyl)sulfamoyl)biphenyl-3-carboxamide]
85 | COc1ccc(-c2cccc(C(=O)N(C)C)c2)cc1S(=O)(=O)Nc1cc(O[C@H]2CCN(C(=O)c3c(C)cccc3C)C2)ccc1F [Example 72, 3′-((5-(((3S)-1-(2,6-dimethylbenzoyl)pyrrolidin-3-yl)oxy)-2-fluorophenyl)sulfamoyl)-4′-methoxy-N,N-dimethylbiphenyl-3-carboxamide]
95 | COc1ccc(-c2cccc(C(=O)N(C)C)c2)cc1S(=O)(=O)Nc1cccc(O[C@H]2CCN(C(=O)C3CCCCO3)C2)c1 (stereo partly drawn) [Example 14, 4′-methoxy-N,N-dimethyl-3′-((3-(((3S)-1-(tetrahydro-2H-pyran-2-ylcarbonyl)pyrrolidin-3-yl)oxy)phenyl)sulfamoyl)biphenyl-3-carboxamide]
98 | COc1ccc(-c2cccc(C(=O)N(C)C)c2)cc1S(=O)(=O)Nc1cccc(O[C@H]2CCN(C(=O)c3cnn(C)c3C(F)(F)F)C2)c1 [Example 29, 4′-methoxy-N,N-dimethyl-3′-((3-(((3S)-1-((1-methyl-5-(trifluoromethyl)-1H-pyrazol-4-yl)carbonyl)pyrrolidin-3-yl)oxy)phenyl)sulfamoyl)biphenyl-3-carboxamide]
91 | COc1ccc(-c2cccc(C(=O)N(C)C)c2)cc1S(=O)(=O)Nc1cccc(O[C@H]2CCN(C(=O)c3ccccc3N(C)C)C2)c1 [Example 9, 3′-((3-(((3S)-1-(2-(dimethylamino)benzoyl)pyrrolidin-3-yl)oxy)phenyl)sulfamoyl)-4′-methoxy-N,N-dimethylbiphenyl-3-carboxamide]
75 | COc1ccc(N2CCOCC2)cc1S(=O)(=O)Nc1cccc(O[C@H]2CCN(C(=O)c3c(C)cccc3C)C2)c1 [Example 31, N-(3-(((3S)-1-(2,6-dimethylbenzoyl)pyrrolidin-3-yl)oxy)phenyl)-2-methoxy-5-(morpholin-4-yl)benzenesulfonamide]
92 | COc1ccc(-c2cccc(C(=O)N(C)C)c2)cc1S(=O)(=O)Nc1cccc(CC2CCN(C(=O)c3cc(C)ccc3C)C2)n1 (stereo not shown) [Example 45, 3′-((6-((1-(2,5-dimethylbenzoyl)pyrrolidin-3-yl)methyl)pyridin-2-yl)sulfamoyl)-4′-methoxy-N,N-dimethylbiphenyl-3-carboxamide]
105 | COc1ccc(-c2cccc(C(=O)N(C)C)c2)cc1S(=O)(=O)Nc1cccc(O[C@@H]2CN(C(=O)c3cc(C)ccc3C)C[C@H]2OC)c1 (relative stereo) [Example 60, trans-3′-((3-((1-(2,5-dimethylbenzoyl)-4-methoxypyrrolidin-3-yl)oxy)phenyl)sulfamoyl)-4′-methoxy-N,N-dimethylbiphenyl-3-carboxamide]
64 | COc1ccc(-c2cccc(C(=O)N(C)C)c2)cc1S(=O)(=O)Nc1cc(OC2CCN(C(=O)c3cccc(C)c3)C2)ccn1 (stereo not shown) [Example 49, 4′-methoxy-N,N-dimethyl-3′-((4-((1-(3-methylbenzoyl)pyrrolidin-3-yl)oxy)pyridin-2-yl)sulfamoyl)biphenyl-3-carboxamide]
90 | COc1ccccc1CC(=O)N1CC[C@H](Oc2cccc(NS(=O)(=O)c3cc(-c4cccc(C(=O)N(C)C)c4)ccc3OC)c2)C1 [Example 17, 4′-methoxy-3′-((3-(((3S)-1-((2-methoxyphenyl)acetyl)pyrrolidin-3-yl)oxy)phenyl)sulfamoyl)-N,N-dimethylbiphenyl-3-carboxamide]
